According to patent US10106505B2, “Composition and methods for modulating a kinase cascade” (Athenex, Inc., priority 2012, dated 2018):
“Also recorded” adds a separate entry of the source. Where two headings read alike, the source gives them in different places.

Columns and labels:
aggressive brain tumors = assay: Mice with aggressive brain tumors (mouse model of malignant glioma); format: in vivo
Method: (§1) Compound 1 is a synthetic, orally bioavailable, novel small molecule microtubule polymerization inhibitor with very high CNS penetration. The efficacy of compound 1 as a novel anti-cancer agent is tested directly using mouse model of malignant glioma. Compound 1 is an orally administered tubulin polymerization inhibitor that binds to a novel site on heterodimeric tubulin, and to a novel conformation of the dimer. Compound 1 can inhibit Src signaling in tumors. Compound 1 has been evaluated in various brain tumor cell lines. […] When administered orally to mice at a dose of 10 mg/kg, the ratio of drug levels in the brain compared to plasma levels was 0.76, indicating excellent blood brain barrier penetration.
(§2) Compound 1 was evaluated in various human and mouse brain tumor cells derived from glioblastoma multiforme, astrocytoma and medulloblastoma. See, e.g., US2011/0281872. […] When administered to mice compound 1 penetrated the brain by 76%, thereby successfully addressing the first major challenge in brain cancer drug discovery. Drugs which are used to treat brain tumors often penetrate only 20% or less.

survivin = assay: Additional molecular studies on survivin
[1] = Brain penetration after oral administration to mice; format: in vivo; conditions: mouse, 10 mg/kg
Method: as §1, §2

GL261 glioma = assay: Orthotropic GL261 glioma model in immune-competent, syngeneic C57BL/6 mice; format: in vivo
Method: (§3) Compound 1 was also evaluated in the orthotropic GL261 glioma model in immune-competent, syngeneic C57BL/6 mice. Mice implanted intracerebrally with 1×1^05 GL261 cells treated with vehicle alone (saline) have a median survival time (MeST) of 21 days (range 18-28). Mice treated by oral compound 1 (30 mg/kg, b.i.d.) have a MeST of 30.5 days ranging 23-32 days. In contrast, when compound 1 is given orally at (30 mg/kg, s.i.d.) the MeST increases to over 120 days, with more than 60% of the treatment group still alive 12 months later (p<0.0001). […] Further experiments were performed using a SCID version of C57BL/6 mice (B6.CB17-Prkd^cscid/SzJ), a mouse model of B6 background, but is immune-compromised.
When given as a single dose per day (s.i.d.) compound 1 led to complete tumor regression in up to 60% of treated mice without further progression. […] This magnitude of anti-tumor effect was not observed in SCID models leading to the possibility that compound 1 may be involved in an anti-tumor immune response.
When given single dose per day (s.i.d.) compound 1 led to complete tumor regression in up to 60% of treated mice without further progression.

[2] = tested on: various brain tumor cell lines (glioblastoma multiforme, astrocytoma, medulloblastoma); assay: Proliferation of brain tumor cell lines; format: cell-based, human and mouse
Method: as §1, §2

[3] = tested on: human colon cancer cells (HT29); assay: Src substrate phosphorylation in HT29 cells; format: cell-based; conditions: in good correlation with growth inhibitory effects
Text: (§4) Compounds of the invention may be Src signaling inhibitors that bind in the Src peptide substrate site. The activity of various compounds of the invention has been studied in c-Src (527F, constitutively active and transforming) transformed NIH3T3 cells and in human colon cancer cells (HT29).

[4] = tested on: GL261 intracerebral tumors; assay: GL261 intracerebral tumors in immune-compromised SCID C57BL/6 mice; format: in vivo, SCID version of C57BL/6 mice (B6.CB17-Prkd^cscid/SzJ)
Method: as §3

[5] = tested on: c-Src (527F, constitutively active and transforming) transformed NIH3T3 cells; assay: Src substrate phosphorylation in c-Src transformed NIH3T3 cells; format: cell-based; conditions: c-Src (527F) transformed NIH3T3 cells; in good correlation with growth inhibitory effects
Text: as §4

[6] = mice with aggressive brain tumors
[7] = oral 30 mg/kg, b.i.d., C57BL/6, intracerebral GL261
[8] = immune-compromised SCID mice bearing GL261 intracerebral tumors

SMILES: Cn1nnc2c(C(N)=O)ncn2c1=O [Temodar, Temozolamide, reference compound]
- rate of tumor growth (aggressive brain tumors; [6]): only slows the growth rate of the tumors
- complete tumor regression (aggressive brain tumors; mice with aggressive brain tumors, comparison drug): does not cause complete tumor regression

SMILES: O=C(Cc1ccc(-c2ccc(N3CCOCC3)cc2)cn1)NCc1cccc(F)c1 [compound 1, N-(3-fluorobenzyl)-2-(5-(4-morpholinophenyl)pyridin-2-yl)acetamide]
- expression and localization of intracellular survivin (survivin): increased expression and altered the localization of intracellular survivin
- drug treated mice with complete tumor regression and no reoccurrence within normal full life span (aggressive brain tumors; [6]): up to 60%
- rate of tumor growth (aggressive brain tumors; [6]): very significantly slows the rate of tumor growth
- brain edema (aggressive brain tumors; versus placebo or Temodar treated mice): much less brain edema
- Kp ([1]; brain (relative to plasma), mice, read-out: ratio of drug levels in the brain compared to plasma levels): 0.76
- Kp ([1]; brain, administered to mice, read-out: brain penetration): 0.76
- second GL261 tumor implant challenge (GL261 glioma; "cured" / long term survivor immune-competent C57BL/6 mice): rejected a second GL261 tumor implant challenge; also recorded: rejection of a second tumor
- median survival time (MeST) (GL261 glioma; [7]): 30.5 days
- survival time range (GL261 glioma; [7]): 23 to 32 days
- median survival time (MeST) (GL261 glioma; oral 30 mg/kg, s.i.d., C57BL/6, intracerebral GL261): over 120 days
- treatment group still alive 12 months later (GL261 glioma; oral 30 mg/kg, s.i.d., p<0.0001): more than 60%
- growth rate of intracerebral GL261 glioma (GL261 glioma; relative to control groups, five independent studies): slows the growth rate
- treated mice with complete tumor regression without further progression (GL261 glioma; single dose per day (s.i.d.)): up to 60%
- growth of brain tumor cells ([2]; human and mouse brain tumor cells derived from glioblastoma multiforme, astrocytoma and medulloblastoma): potently inhibited the growth
- GI50 ([2]; various brain tumor cell lines, in all cases, read-out: GI50 (inhibition of proliferation)): < 55 nM
- phosphorylation level of known Src protein substrates [3]: reduce the phosphorylation level of known Src protein substrates in a dose-dependent fashion
- tumor outcome after drug was discontinued (observed by MRI) ([4]; SCID mice surviving greater than 45 days): all proceeded to develop lethal GL261 gliomas
- median survival time (MeST) [4, 8]: 40 days
- survival time range [4, 8]: 29 to 75 days
- phosphorylation level of known Src protein substrates [5]: reduce the phosphorylation level of known Src protein substrates in a dose-dependent fashion
